One assay deals with KURAMOCHI
Description: drug sensitivity score (DSS2) on cancer cell count; higher = more sensitive; extreme values may be limits of the assay. The settings on record: 72 h. The essentials:
(§1)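 Ovarian cancer cells were grown alone or in 1:1 direct co-culture with lung or skin fibroblasts. They were plated onto 384-well plates pre-spotted acoustically with 528 approved and investigational compounds at 5 concentrations, then treated for 72 h. Cells were fixed, immunostained for CK8/18 with Hoechst, and imaged at 10× (4 fields) to count cancer cells. A drug sensitivity score (DSS2) was derived in Breeze from 4-parameter logistic fits, with screen quality checked by Z'.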

In another assay the test system is OVCAR8. The description is as above. The settings on record: 72 h. In a few lines:
as §1

[1] abbreviates: co-cultured fibroblast: BJHTERT.
Setting [2] is: co-cultured fibroblast: none (monoculture).

For 13 molecules, drug sensitivity score results are on record in the supplement of paper PMC12420376.

Take `CNC(=O)[C@@H](NC(=O)[C@H](CC(C)C)[C@H](O)C(=O)NO)C(C)(C)C` [Marimastat]: the drug sensitivity score in the assay on KURAMOCHI (setting [1]) was 0 DSS; with KURAMOCHI (co-cultured fibroblast: WI38) it was 0 DSS; in the assay on KURAMOCHI (setting [2]) it was 0 DSS; in the assay with OVCAR8 (setting [1]), 0.2 DSS; in the assay with OVCAR8 (co-cultured fibroblast: WI38), 1.4 DSS; in the assay on OVCAR8 (setting [2]), 0.7 DSS.

As for `NC(=O)N1CCC(CC(=O)N2CCC([C@H]3c4ncc(Br)cc4CCc4cc(Cl)cc(Br)c43)CC2)CC1` [Lonafarnib], the drug sensitivity score in the assay on KURAMOCHI (setting [1]) is 13 DSS; in the assay on KURAMOCHI (co-cultured fibroblast: WI38), 13.9 DSS; with KURAMOCHI (setting [2]), 13.2 DSS; in the assay on OVCAR8 (setting [1]) it was 14.5 DSS; in the assay on OVCAR8 (co-cultured fibroblast: WI38) it was 4.9 DSS; in the assay with OVCAR8 (setting [2]), 10.3 DSS.

Regarding `Cc1ncc(Cl)cc1NCc1ccc(C(=O)N[C@@H](CC2CCCC2)C(=O)NC2CC2)s1`, the drug sensitivity score with KURAMOCHI (setting [1]), with KURAMOCHI (co-cultured fibroblast: WI38), in the assay with KURAMOCHI (setting [2]), in the assay on OVCAR8 (setting [1]), in the assay with OVCAR8 (co-cultured fibroblast: WI38) and in the assay with OVCAR8 (setting [2]) was 0 DSS in each case.

As to `N#Cc1ccc(C(c2ccc(C#N)cc2)n2cncn2)cc1` [Letrozole], the drug sensitivity score with KURAMOCHI (setting [1]), in the assay on KURAMOCHI (co-cultured fibroblast: WI38), in the assay on KURAMOCHI (setting [2]), with OVCAR8 (setting [1]), in the assay with OVCAR8 (co-cultured fibroblast: WI38) and in the assay on OVCAR8 (setting [2]) was 0 DSS throughout.

For the molecule `C[C@]12CC[C@H](O)CC1=CC[C@@H]1[C@@H]2CC[C@]2(C)C(c3cccnc3)=CC[C@@H]12` [Abiraterone], the drug sensitivity score in the assay on KURAMOCHI (setting [1]), in the assay on KURAMOCHI (co-cultured fibroblast: WI38), in the assay with KURAMOCHI (setting [2]), in the assay with OVCAR8 (setting [1]), in the assay on OVCAR8 (co-cultured fibroblast: WI38) and with OVCAR8 (setting [2]) was 0 DSS throughout.

For the molecule `Cc1c(-c2c(-c3ccc(F)o3)sc3ncnc(O[C@H](Cc4ccccc4OCc4ccnn4CC(F)(F)F)C(=O)O)c23)ccc(OCCN2CCN(C)CC2)c1Cl`, the drug sensitivity score in the assay on KURAMOCHI (setting [1]), in the assay on KURAMOCHI (co-cultured fibroblast: WI38), with KURAMOCHI (setting [2]), in the assay with OVCAR8 (setting [1]), in the assay with OVCAR8 (co-cultured fibroblast: WI38) and in the assay with OVCAR8 (setting [2]) was 0 DSS throughout.

Consider `Nc1cccc2c1CN(C1CCC(=O)NC1=O)C2=O` (stereo not drawn) [Lenalidomide], for which the drug sensitivity score in the assay on KURAMOCHI (setting [1]) is 0.1 DSS; with KURAMOCHI (co-cultured fibroblast: WI38), 2.6 DSS; with KURAMOCHI (setting [2]), 10.7 DSS; in the assay on OVCAR8 (setting [1]), 0 DSS; with OVCAR8 (co-cultured fibroblast: WI38) it was 0 DSS; in the assay on OVCAR8 (setting [2]), 1.8 DSS.

As for `Nc1nccc(-c2c(-c3ccc(F)cc3)ncn2C2CCCCC2)n1`, the drug sensitivity score stood at 5.1 DSS in the assay with KURAMOCHI (setting [1]); 4 DSS with KURAMOCHI (co-cultured fibroblast: WI38); 4.1 DSS with KURAMOCHI (setting [2]); 1.4 DSS with OVCAR8 (setting [1]); 0 DSS with OVCAR8 (co-cultured fibroblast: WI38); 1.2 DSS in the assay with OVCAR8 (setting [2]).

As to `FC(F)c1nc2ccccc2n1-c1nc(N2CCOCC2)nc(N2CCOCC2)n1` [ZSTK474], the drug sensitivity score stood at 15 DSS in the assay on KURAMOCHI (setting [1]); 12.7 DSS in the assay with KURAMOCHI (co-cultured fibroblast: WI38); 10.9 DSS with KURAMOCHI (setting [2]); 5.3 DSS in the assay on OVCAR8 (setting [1]); 0 DSS with OVCAR8 (co-cultured fibroblast: WI38); 9.8 DSS with OVCAR8 (setting [2]).

Regarding `CC(O)c1cc(C(=O)N[C@@H](C)Cn2ccc(-c3ccc(C#N)c(Cl)c3)n2)n[nH]1` (stereo partly drawn) [ODM-201], the drug sensitivity score with KURAMOCHI (setting [1]) turned out to be 1.3 DSS; in the assay with KURAMOCHI (co-cultured fibroblast: WI38), 0 DSS; in the assay on KURAMOCHI (setting [2]), 3.7 DSS; in the assay on OVCAR8 (setting [1]) it was 0.5 DSS; in the assay with OVCAR8 (co-cultured fibroblast: WI38), 0 DSS; in the assay with OVCAR8 (setting [2]), 0 DSS.

With `O=c1ncn2nc(Sc3ccc(F)cc3F)ccc2c1-c1c(Cl)cccc1Cl` [Neflamapimod], the drug sensitivity score with KURAMOCHI (setting [1]) was determined as 9.1 DSS; in the assay with KURAMOCHI (co-cultured fibroblast: WI38) it was 0.7 DSS; with KURAMOCHI (setting [2]), 14.9 DSS; in the assay on OVCAR8 (setting [1]) it was 0 DSS; with OVCAR8 (co-cultured fibroblast: WI38) it was 0 DSS; in the assay on OVCAR8 (setting [2]), 0.3 DSS.

Take `COc1cc(OC)cc(N(CCNC(C)C)c2ccc3ncc(-c4cnn(C)c4)nc3c2)c1` [Erdafitinib]: the drug sensitivity score in the assay on KURAMOCHI (setting [1]), in the assay on KURAMOCHI (co-cultured fibroblast: WI38), in the assay on KURAMOCHI (setting [2]), in the assay with OVCAR8 (setting [1]), in the assay on OVCAR8 (co-cultured fibroblast: WI38) and in the assay with OVCAR8 (setting [2]) was 0 DSS each time.

For `N.N.[Cl][Pt][Cl]` [Cisplatin], the drug sensitivity score with KURAMOCHI (setting [1]) amounted to 1.6 DSS; in the assay on KURAMOCHI (co-cultured fibroblast: WI38), 6.5 DSS; in the assay on KURAMOCHI (setting [2]) it was 4.7 DSS; with OVCAR8 (setting [1]), 7.2 DSS; in the assay with OVCAR8 (co-cultured fibroblast: WI38), 9.4 DSS; in the assay with OVCAR8 (setting [2]), 8.5 DSS.
